Measurements taken from patent US9682978B2, “2,6,7 substituted purines as HDM2 inhibitors” (Merck Sharp & Dohme Corp., priority 2013, dated 2017).

molecular target: T1, HDM2 (Homo sapiens, UniProt Q00987); assay: HDM2 FRET assay (inhibition of p53 peptide binding to HDM2); conditions: Table 1, printed in the FRET IC50 column; at 1000 nM compound
T1 construct: Thioredoxin (N); made in house; host or cells: E. coli BL21(DE3)Rosetta (pET32a)
From the text: Methods: An HDM2 FRET assay was developed to assess the compounds' inhibitory activity towards binding of p53 protein. A truncated version of HDM2 with residues 17 to 125 (containing p53 binding surface, Science (1994) 265, 346-355), with N-terminal His and Thioredoxin tag was generated in pET32a expression vector and expressed in E. coli strain BL21(DE3)Rosetta. Protein was purified using Ni-affinity chromatography, followed by size exclusion chromatography using Superdex 75 26/60 column. To assess inhibition of p53 binding to HDM2, a FITC labeled 8-mer peptide (sequence: Ac-Phe-Arg-Dpr-Ac6c-(6-Br)Trp-Glu-Glu-Leu-NH2; Anal Biochem. 2004 Aug. 1; 331(1):138-46) with strong affinity towards p53 binding pocket of HDM2 was used. The HDM2 assay buffer contained 1× Phosphate Buffered Saline (Invitrogen, Cat#14190), 0.01% BSA (Jackson ImmunoResearch, Cat#001-000-162), 0.01% Tween-20. In the 1× assay buffer recombinant HDM2 protein, peptide and Lumi4-Tb Cryptate-conjugate mouse anti-6×HIS antibody (cisbio, Cat#Tb61HISTLB) were added and transferred to ProxiPlate PLUS (PerkinElmer, Cat#6008269), containing compounds so that final DMSO concentration is 0.1%. Final concentrations of reagents in the assay wells are 0.5 nM HDM2, 0.25 nM anti HIS (Tb label) antibody and 3 nM peptide. After two hour incubation at room temperature in a humidified chamber plates were read on EnVision plate reader with the following settings: excitation: UV, […], two emission filters: 520 nm and 495 nm respectively. Ratio of em520/em495 was used to calculate % inhibition and to obtain IC50 with 4-parameter logistic equation.
IC50 DETERMINATIONS: Dose-response curves were plotted from the inhibition data, from 10 point serial dilutions of inhibitory compounds. Concentration of compound was plotted against em520/Cem495 ratio signal. To generate IC50 values, the dose-response curves were fitted to a standard sigmoidal curve and IC50 values were derived by nonlinear regression analysis. IC50 values in the above table are rounded to the nearest integer.

T1 sequence (Q00987 17-125): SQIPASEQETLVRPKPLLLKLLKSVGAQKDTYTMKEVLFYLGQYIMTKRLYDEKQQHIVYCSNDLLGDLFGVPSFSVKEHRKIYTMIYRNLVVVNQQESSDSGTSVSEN

Structure (SMILES) | inhibition at 1 µM [%]
CC1(C)CCCN(c2nc(-c3noc(=O)[nH]3)nc3ncn(C[C@H]4CC[C@H](C)CC4)c23)C1 [Example 1.12, 3-{6-(3,3-dimethylpiperidin-1-yl)-7-[(trans-4-methylcyclohexyl)methyl]-7H-purin-2-yl}-1,2,4-oxadiazol-5(4H)-one] | 43
CC1CCCN(c2nc(-c3noc(=O)[nH]3)nc3ncn(C[C@H]4CC[C@H](C)CC4)c23)C1 (stereo partly drawn) [Example 1.11, 3-{7-[(trans-4-methylcyclohexyl)methyl]-6-(3-methylpiperidin-1-yl)-7H-purin-2-yl}-1,2,4-oxadiazol-5(4H)-one] | 43
C[C@H]1CC[C@H](Cn2cnc3nc(-c4noc(=O)[nH]4)nc(N4CCCC(C(F)(F)F)C4)c32)CC1 (stereo partly drawn) [Example 1.10, 3-{7-[(trans-4-methylcyclohexyl)methyl]-6-[3-(trifluoromethyl)piperidin-1-yl]-7H-purin-2-yl}-1,2,4-oxadiazol-5(4H)-one] | 37

same assay, conditions: Table 1; truncated HDM2 residues 17 to 125, 0.5 nM HDM2, 3 nM FITC labeled 8-mer peptide, two hour incubation

Structure (SMILES) | IC50 [µM]
C[C@H]1CC[C@H](Cn2cnc3nc(-c4noc(=O)[nH]4)nc(Oc4cccc(Cl)c4)c32)CC1 [Example 1.5, 3-{6-(3-chlorophenoxy)-7-[(trans-4-methylcyclohexyl)methyl]-7H-purin-2-yl}-1,2,4-oxadiazol-5(4H)-one] | 0.392
C[C@@H](Nc1nc(C(=O)NS(=O)(=O)N(C)C)nc2ncn(C[C@H]3CC[C@H](C)CC3)c12)C1CCC1 [Example 1.4, 6-{[(1R)-1-cyclobutylethyl]amino}-N-(dimethylsulfamoyl)-7-[(trans-4-methylcyclohexyl)methyl]-7H-purine-2-carboxamide] | 0.733
C[C@@H](Nc1nc(-c2noc(=O)[nH]2)nc2ncn(C[C@H]3CC[C@H](C)CC3)c12)C1CCC1 [Example 1.7, 3-(6-{[(1R)-1-cyclobutylethyl]amino}-7-[(trans-4-methylcyclohexyl)methyl]-7H-purin-2-yl)-1,2,4-oxadiazol-5(4H)-one] | 0.0513
C[C@@H](Nc1nc(C(=O)O)nc2ncn(Cc3cc4ccccc4s3)c12)C1CC1 [Example 1.8, 7-(1-benzothiophen-2-ylmethyl)-6-{[(1R)-1-cyclopropylethyl]amino}-7H-purine-2-carboxylic acid] | 2.42

same assay, conditions: Table 2; truncated HDM2 residues 17 to 125, 0.5 nM HDM2, 3 nM FITC labeled 8-mer peptide, two hour incubation

Structure (SMILES) | IC50 [µM]
C[C@H]1CC[C@H](Cn2cnc3nc(-c4noc(=O)[nH]4)nc(-c4cccc(Cl)c4)c32)CC1 [Example 2.1, 3-{6-(3-chlorophenyl)-7-[(trans-4-methylcyclohexyl)methyl]-7H-purin-2-yl}-1,2,4-oxadiazol-5(4H)-one] | 0.0534
C[C@H]1CC[C@H](Cn2cnc3nc(-c4noc(=O)[nH]4)nc(-c4cccc(Br)c4)c32)CC1 [Example 2.8, 3-{6-(3-bromophenyl)-7-[(trans-4-methylcyclohexyl)methyl]-7H-purin-2-yl}-1,2,4-oxadiazol-5(4H)-one] | 0.157
C[C@H]1CC[C@H](Cn2cnc3nc(C(=O)O)nc(-c4cncc(Cl)c4)c32)CC1 [Example 2.20, 6-(5-chloropyridin-3-yl)-7-[(trans-4-methylcyclohexyl)methyl]-7H-purine-2-carboxylic acid] | 0.213
C[C@H]1CC[C@H](Cn2cnc3nc(-c4noc(=O)[nH]4)nc(-c4cccc(C#N)c4)c32)CC1 [Example 2.9, 3-{7-[(trans-4-methylcyclohexyl)methyl]-2-(5-oxo-4,5-dihydro-1,2,4-oxadiazol-3-yl)-7H-purin-6-yl}benzonitrile] | 0.518
C[C@H]1CC[C@H](Cn2cnc3nc(-c4noc(=O)[nH]4)nc(-c4cc(Cl)cnc4O)c32)CC1 [Example 2.16, 3-{6-(5-chloro-2-hydroxypyridin-3-yl)-7-[(trans-4-methylcyclohexyl)methyl]-7H-purin-2-yl}-1,2,4-oxadiazol-5(4H)-one] | 0.0876
C[C@H]1CC[C@H](Cn2cnc3nc(-c4noc(=O)[nH]4)nc(-c4cc(Cl)ccn4)c32)CC1 [Example 2.3, 3-{6-(4-chloropyridin-2-yl)-7-[(trans-4-methylcyclohexyl)methyl]-7H-purin-2-yl}-1,2,4-oxadiazol-5(4H)-one] | 0.251
C[C@H]1CC[C@H](Cn2cnc3nc(-c4noc(=O)[nH]4)nc(-c4cc(O)cc(Cl)c4)c32)CC1 [Example 2.7, 3-{6-(3-chloro-5-hydroxyphenyl)-7-[(trans-4-methylcyclohexyl)methyl]-7H-purin-2-yl}-1,2,4-oxadiazol-5(4H)-one] | 0.111
CS(=O)(=O)c1cc(Cl)cc(-c2nc(-c3noc(=O)[nH]3)nc3ncn(C[C@H]4CC[C@H](C)CC4)c23)c1 [Example 2.17, 3-{6-[3-chloro-5-(methylsulfonyl)phenyl]-7-[(trans-4-methylcyclohexyl)methyl]-7H-purin-2-yl}-1,2,4-oxadiazol-5(4H)-one] | 0.25
COCOc1cc(Cl)cc(-c2nc(-c3noc(=O)[nH]3)nc3ncn(C[C@H]4CC[C@H](C)CC4)c23)c1 [Example 2.14, 3-{6-[3-chloro-5-(methoxymethoxy)phenyl]-7-[(trans-4-methylcyclohexyl)methyl]-7H-purin-2-yl}-1,2,4-oxadiazol-5(4H)-one] | 0.0417
COC(=O)c1cc(C)cc(-c2nc(-c3noc(=O)[nH]3)nc3ncn(C[C@H]4CC[C@H](C)CC4)c23)c1 [Example 2.19, methyl 3-methyl-5-{7-[(trans-4-methylcyclohexyl)methyl]-2-(5-oxo-4,5-dihydro-1,2,4-oxadiazol-3-yl)-7H-purin-6-yl}benzoate] | 0.579
C[C@H]1CC[C@H](Cn2cnc3nc(-c4noc(=O)[nH]4)nc(-c4ccnc(Cl)c4F)c32)CC1 [Example 2.2, 3-{6-(2-chloro-3-fluoropyridin-4-yl)-7-[(trans-4-methylcyclohexyl)methyl]-7H-purin-2-yl}-1,2,4-oxadiazol-5(4H)-one] | 0.134
C[C@H]1CC[C@H](Cn2cnc3nc(-c4noc(=O)[nH]4)nc(-c4cc(Cl)cc(C(N)=O)c4)c32)CC1 [Example 2.13, 3-chloro-5-{7-[(trans-4-methylcyclohexyl)methyl]-2-(5-oxo-4,5-dihydro-1,2,4-oxadiazol-3-yl)-7H-purin-6-yl}benzamide] | 0.0508
C[C@H]1CC[C@H](Cn2cnc3nc(-c4noc(=O)[nH]4)nc(-c4cc(Cl)cc(C#N)c4)c32)CC1 [Example 2.4, 3-chloro-5-{7-[(trans-4-methylcyclohexyl)methyl]-2-(5-oxo-4,5-dihydro-1,2,4-oxadiazol-3-yl)-7H-purin-6-yl}benzonitrile] | 0.413

same assay, conditions: Table 3; truncated HDM2 residues 17 to 125, 0.5 nM HDM2, 3 nM FITC labeled 8-mer peptide, two hour incubation

Structure (SMILES) | IC50 [µM]
C[C@@H]1CC[C@@H](Cn2cnc3nc(-c4noc(=O)[nH]4)nc(-c4cccc(Cl)c4)c32)CC1(F)F (single isomer, unassigned) [Example 3.15, 3-[6-(3-chlorophenyl)-7-{[(trans)-3,3-difluoro-4-methylcyclohexyl]methyl}-7H-purin-2-yl]-1,2,4-oxadiazol-5(4H)-one] | 0.43
O=c1[nH]c(-c2nc(-c3cccc(Cl)c3)c3c(ncn3C[C@H]3CC[C@H](C(F)(F)F)CC3)n2)no1 [Example 3.2, 3-[6-(3-chlorophenyl)-7-{[trans-4-(trifluoromethyl)cyclohexyl]methyl}-7H-purin-2-yl]-1,2,4-oxadiazol-5(4H)-one] | 0.437
CC([C@H]1CC[C@H](C)CC1)n1cnc2nc(-c3noc(=O)[nH]3)nc(N[C@H](C)C3CCC3)c21 (single isomer, unassigned) [Example 3.17] | 0.421
CCC1CCC(Cn2cnc3nc(C(=O)O)nc(N[C@H](C)C4CCC4)c32)C1 (single isomer, unassigned) [Example 3.11] | 0.677
C[C@@H](Nc1nc(-c2noc(=O)[nH]2)nc2ncn(C[C@H]3CC[C@H](C(F)(F)F)CC3)c12)C1CCC1 [Example 3.1, 3-(6-{[(1R)-1-cyclobutylethyl]amino}-7-{[trans-4-(trifluoromethyl)cyclohexyl]methyl}-7H-purin-2-yl)-1,2,4-oxadiazol-5(4H)-one] | 0.116
C[C@@H]1CC[C@@H](Cn2cnc3nc(-c4noc(=O)[nH]4)nc(-c4cccc(Cl)c4)c32)CC1(F)F (single isomer, unassigned) [Example 3.16, 3-[6-(3-chlorophenyl)-7-{[(trans)-3,3-difluoro-4-methylcyclohexyl]methyl}-7H-purin-2-yl]-1,2,4-oxadiazol-5(4H)-one] | 0.848
CCC1CCC(Cn2cnc3nc(C(=O)O)nc(N[C@H](C)C4CCC4)c32)C1 (single isomer, unassigned) [Example 3.13] | 0.51
